Measurements from a melting point compilation (Tetko et al.; mined from patent text by program, amines drawn as free bases though some values may be those of a salt).

First: CCOC(=O)/C=C/c1ccc(OCC(C)=O)cc1Oc1ncc(C(F)(F)F)cc1Cl
Second: Cc1cccc(C(=O)O)c1-c1ccc(C(F)(F)F)cc1
The melting point of the first is lower: 167 to 168 °C for the first, 202 to 203 °C for the second.

Compared with `O=C1c2cccc3c(F)ccc(c23)C(=O)N1O`, `Cn1cc(-c2ccccc2)c(=O)c(-c2cccc(S(C)(=O)=O)c2)c1` is lower in melting point: 257 to 261 °C for the first, 176 to 181 °C for the second.

First: CCOC(=O)c1cc(Cl)c(Cl)c(-c2cc(C)no2)c1C
Second: CCOC(=O)c1c(Cl)nc2cscc2c1Cl
The melting point of the first is higher: 86 to 88 °C for the first, 79 °C for the second.

Compared with `CCCCCCCCCC(=O)NC(=O)OCc1nc(C(C)C)c(Sc2cc(Cl)cc(Cl)c2)n1Cc1ccncc1`, `CCCCCCCCCCCCCCCc1cc2ccc(C(=O)O)cc2[nH]1` is higher in melting point: 84 to 86 °C for the first, 140 to 142 °C for the second.

First: COc1cc(C=CNC(C)=O)ccc1OCC1CO1 (stereo not given)
Second: CCCC(=O)C(=CNc1ccccc1OC)C(=O)OCC
The melting point of the first is higher: 173 to 174 °C for the first, 74 to 76 °C for the second.

First: COc1ccc(C(=O)c2ccc(Cl)c(S(N)(=O)=O)c2)cc1
Second: NS(=O)(=O)c1cccc(NC(=O)c2cnn3c(C(F)(F)F)cc(-c4ccc(Cl)c(Cl)c4)nc23)c1
The melting point of the first is lower: 156 to 158 °C for the first, 302 °C for the second.

Compared with `C=Cc1ccc(CSCCNC(=O)CCCC(=O)O)cc1`, `O=S(=O)(Cl)CCc1ccc(Cl)cc1` is lower in melting point: 118 to 119 °C for the first, 87 to 87.5 °C for the second.

First: O=C(CCc1ccccc1)Cn1ccnc1
Second: CC(C)(C)N(CCc1ccccc1)NC(=O)c1ccccc1
The melting point of the first is higher: 172 to 173 °C for the first, 150 to 152 °C for the second.

First: CCCCCCCCCCCCCCCCC(C(=O)O)S(C)=O (stereo not given)
Second: CCOC(=O)CN(CC1Nc2cc(Cl)c(S(N)(=O)=O)cc2S(=O)(=O)N1)C(=O)C(C)CSC(C)=O (stereo not given)
The melting point of the first is lower: 93 to 97 °C for the first, 127 to 130 °C for the second.

Compared with `CCOC(=O)C1CCN(c2nnc(NCc3ccc4c(c3)OCO4)c3ccncc23)CC1`, `COc1cc2c(Nc3cccc(Cl)c3F)ncnc2cc1OC1CCN(C(=O)[C@@H](O)C(C)(C)C)CC1` is higher in melting point: 135 to 136 °C for the first, 205 to 206 °C for the second.

First: c1ccc2[nH]c(CCC(CCCc3[nH]c4ccccc4c3CCN3CCCCC3)CCN3CCCCC3)cc2c1 (stereo not given)
Second: COc1cc(-c2cn(Cc3ccccc3)c(=O)c3ccccc23)ccc1O
The melting point of the first is lower: 79 to 83 °C for the first, 165 to 167 °C for the second.

Compared with `CCOC(=O)c1cc2ccccc2[nH]c1=O`, `CCOC(=O)c1c(-c2ccccc2)nc(Cl)n1C` is lower in melting point: 160 to 163 °C for the first, 54 to 55 °C for the second.

First: CCOC(=O)c1cccc(-n2cc(-c3ccccc3)c3c(N)ncnc32)c1
Second: Cc1c(-c2ccccc2)cccc1-c1ccc2ccccc2c1
The melting point of the first is higher: 176 to 177 °C for the first, 106 to 107 °C for the second.

Compared with `OCC1Cc2c(ccc3c(-c4ccccc4)noc23)O1` (stereo not given), `C[C@]1(CN2CCCc3ccccc32)Cn2cc([N+](=O)[O-])nc2O1` is higher in melting point: 107 to 109 °C for the first, 168 to 172 °C for the second.

First: Cc1sc(C)c(NC(=S)Nc2c(Cl)cccc2Cl)c1N
Second: O=C1C=C(NC(=O)C(=O)c2cn(Cc3ccc(Cl)cc3)c3cccc(NC(=O)c4ccc(Cl)cc4)c23)CO1
The melting point of the first is lower: 143 to 148 °C for the first, > 300 °C for the second.

First: COC(OC)c1c(SC(F)(F)F)c(C#N)nn1-c1c(Cl)cc(C(F)(F)F)cc1Cl
Second: CCC(=O)n1nc(-c2cc(C(C)(C)C)c(O)c(C(C)(C)C)c2)c2cccnc21
The melting point of the first is lower: 93 °C for the first, 184 to 185 °C for the second.

Compared with `Fc1ccc2nc[nH]c2c1`, `Cc1nnc2c(NC3CCCC3)nc3ccccc3n12` is higher in melting point: 194 to 196 °C for the first, 196 to 198 °C for the second.

First: CCN1CCCC1Cc1cccc(NC(N)=O)c1 (stereo not given)
Second: CCn1c(=O)c2[nH]c(/C=C/c3ccc(N(C)C)cc3)nc2n(CC)c1=O
The melting point of the first is lower: 114 to 116 °C for the first, > 300 °C for the second.

Going from `COc1ccc(C2(C#Cc3cc(C#N)cc(C#N)c3)CCC(=O)CC2)cc1OC1CCCC1` to `CC(=O)OC1CSC(Oc2ccc(-c3ccncc3)nc2F)C(OC(C)=O)C1OC(C)=O` (stereo not given), the melting point rises from 148 °C to 164 °C.

First: COc1cc(OC)nc(NC(=O)NS(=O)(=O)Oc2ccccc2-c2nnco2)n1
Second: COc1ccc(COc2c(OC)cc(C=C(C(=O)OC(C)C)P(=O)(OC)OC)cc2OC)cc1
The melting point of the first is higher: 161 to 164 °C for the first, 68 to 69 °C for the second.
